# Like-named read-outs stand apart in the source and are kept apart here.
# How the values were obtained:
# [1] = Solubility; assay type: physicochemical
# [2] = Protein Binding; assay type: in vitro ADME; details: human, human serum components
# Protocol: In general, protein binding is assessed by measuring the capacity of molecules of the invention to bind to one or more human serum components or mimics thereof. In one embodiment, suitable functional residues may be identified by screening of surfaces comprising such residues for their ability to resist adsorption of serum components, including, but not limited to serum proteins, and preferably human serum proteins. Candidate residues can be screened directly by attaching them to a solid support and testing the support for protein resistance. Alternatively, candidate residues are incorporated into, or linked to molecules of pharmaceutical interest. Such compounds may be synthesized on a solid support, or bound to a solid support after synthesis. In a non-limiting example of a direct binding assay, immobilized candidate functional residues or molecules incorporating such residues are tested for their ability to bind serum components. The serum components can be labeled with a signaling moiety for detection, or a labeled secondary reagent that binds to such serum components can be used.
# A direct binding analysis can also be preformed in liquid phase. For example, test compounds can be mixed with one or more serum components in liquid phase, and the unbound molecules determined.
# [3] = system: PDE-3; test: PDE-3 inhibition; assay type: biochemical
# [4] = Non-Spec Binding; assay type: in vitro ADME
# [5] = system: PDE-4 human; test: PDE-4 human inhibition; assay type: biochemical
# [6] = system: PDE-1; test: PDE-1 inhibition; assay type: biochemical
# [7] = target: PDE5 (Homo sapiens, UniProt O76074); test: PDE-5 human inhibition; assay type: biochemical
# [8] = target: T1, PDE-6 bovine (Bos taurus, UniProt P11541+P23439); test: PDE-6 bovine inhibition; assay type: biochemical
# T1 sequence (P11541 2-856 limits assumed): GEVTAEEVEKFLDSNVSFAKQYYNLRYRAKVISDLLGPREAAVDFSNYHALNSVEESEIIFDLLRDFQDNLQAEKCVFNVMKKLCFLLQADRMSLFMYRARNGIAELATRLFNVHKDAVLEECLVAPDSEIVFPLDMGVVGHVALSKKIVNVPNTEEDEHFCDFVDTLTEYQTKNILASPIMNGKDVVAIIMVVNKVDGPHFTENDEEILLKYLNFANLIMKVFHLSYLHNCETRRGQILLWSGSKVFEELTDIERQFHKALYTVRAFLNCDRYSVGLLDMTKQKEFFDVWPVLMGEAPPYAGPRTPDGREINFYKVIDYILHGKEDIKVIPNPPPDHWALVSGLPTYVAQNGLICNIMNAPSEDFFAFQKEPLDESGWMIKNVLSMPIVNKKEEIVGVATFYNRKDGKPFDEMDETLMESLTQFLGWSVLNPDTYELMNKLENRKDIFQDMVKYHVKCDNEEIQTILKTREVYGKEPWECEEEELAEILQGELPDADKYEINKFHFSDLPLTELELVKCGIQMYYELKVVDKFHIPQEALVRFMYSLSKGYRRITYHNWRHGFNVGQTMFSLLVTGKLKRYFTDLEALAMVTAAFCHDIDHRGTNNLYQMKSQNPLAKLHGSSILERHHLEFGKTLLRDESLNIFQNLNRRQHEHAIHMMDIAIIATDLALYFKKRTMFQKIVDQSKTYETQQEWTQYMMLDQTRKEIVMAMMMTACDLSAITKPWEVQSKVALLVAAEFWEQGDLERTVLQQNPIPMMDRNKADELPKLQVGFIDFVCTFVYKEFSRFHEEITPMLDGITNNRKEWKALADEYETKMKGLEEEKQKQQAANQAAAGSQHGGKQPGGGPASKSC
# T1 sequence (P23439 2-850 limits assumed): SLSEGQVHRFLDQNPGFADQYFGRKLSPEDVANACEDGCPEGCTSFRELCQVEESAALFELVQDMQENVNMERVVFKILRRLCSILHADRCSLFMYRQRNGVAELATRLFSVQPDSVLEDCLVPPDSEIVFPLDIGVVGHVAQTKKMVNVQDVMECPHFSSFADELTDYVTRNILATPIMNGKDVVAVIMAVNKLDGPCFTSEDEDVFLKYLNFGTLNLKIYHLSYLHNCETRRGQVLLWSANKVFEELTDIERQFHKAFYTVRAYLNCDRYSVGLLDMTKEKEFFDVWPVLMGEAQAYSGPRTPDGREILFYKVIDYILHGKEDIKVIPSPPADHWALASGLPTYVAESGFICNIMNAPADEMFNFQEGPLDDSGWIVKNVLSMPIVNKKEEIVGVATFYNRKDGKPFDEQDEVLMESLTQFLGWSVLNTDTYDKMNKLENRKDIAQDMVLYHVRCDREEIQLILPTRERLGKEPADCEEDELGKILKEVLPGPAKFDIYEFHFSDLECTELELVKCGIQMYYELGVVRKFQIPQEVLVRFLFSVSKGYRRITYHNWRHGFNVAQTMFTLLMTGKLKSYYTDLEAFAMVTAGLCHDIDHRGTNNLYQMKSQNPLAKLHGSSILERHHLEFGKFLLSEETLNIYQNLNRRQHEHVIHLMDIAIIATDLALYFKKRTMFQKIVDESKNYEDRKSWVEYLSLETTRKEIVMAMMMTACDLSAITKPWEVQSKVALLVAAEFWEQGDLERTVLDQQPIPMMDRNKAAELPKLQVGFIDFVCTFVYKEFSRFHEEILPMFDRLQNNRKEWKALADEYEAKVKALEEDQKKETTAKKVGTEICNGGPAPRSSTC
# [9] = Chronic Cytoxicity (mouse 3T3); assay type: cell-based; details: 3T3 cells
# [10] = Caco-2 permeability; assay type: in vitro ADME; details: human; for Papp A→B: AtoB; for Papp B→A: BtoA
# Source text: Several model systems are available, employing monolayers of various cell types, for evaluation of active transport of pharmaceutically active substances. For example, monolayers of Caco-2 intestinal epithelial cells can be used to evaluate active transport of substances between the intestine and the bloodstream. When plated on a surface which allows the flow of material from apical to basolateral and vice versa, such cells form a biological membrane which can be used to simulate physiological absorption and bioavailability. In another example, mouse brain capillary endothelial cell (MBEC) lines have been established to evaluate active transport in and out of the central nervous system. Another example of such cells is HT29 human colon carcinoma cells. Further, monolayers expressing particular transporter proteins can be established using transfected cells. For example, Sasaki et al (2002) J. Biol. Chem. 8:6497 used a double-transfected Madin-Darby canine kidney cell monolayer to study transport of organic anions.
# [11] = PAMPA permeability; assay type: in vitro ADME
# [12] = pH 2.7, aqueous buffer, read-out: Solubility (ug/mL) pH 2.7
# [13] = pH 7.4, aqueous buffer, read-out: Solubility (ug/mL) pH 7.4
Compound,"solubility [1, 12]","solubility [1, 13]",fraction unbound [2],IC50 [3],Non-Spec Binding (%) [4],IC50 [5],IC50 [6],IC50 [7],IC50 [8],GI50 [9],LC50 (50% lethal concentration) [9],Papp A→B [10],Papp B→A [10],"Papp ([11]; Hex, read-out: PAMPA Hex)","Papp ([11]; Lec, read-out: PAMPA Lec)"
CCCc1nc(C)c2c(=O)[nH]c(-c3cc(S(=O)(=O)N(C)CCN4CCCC4=O)ccc3OCC)nn12 [Compound 20],93.3 µg/mL,90.9 µg/mL,0.037,1170 nM,7.4%,944 nM,11.5 nM,0.135 nM,0.63 nM,–,–,–,–,–,–
CCCc1nc(C)c2c(=O)[nH]c(-c3cc(S(=O)(=O)N(C)CCNC)ccc3OCC)nn12 [Compound 2],> 50 µg/mL,> 50 µg/mL,–,1930 nM,–,–,82 nM,0.646 nM,16.3 nM,> 75000 nM,> 75000 nM,1.48 ×10⁻⁶ cm/s,9.88 ×10⁻⁶ cm/s,1.17 ×10⁻⁶ cm/s,1.47 ×10⁻⁶ cm/s
CCCNS(=O)(=O)c1ccc(OCC)c(-c2nn3c(CCC)nc(C)c3c(=O)[nH]2)c1 [Compound 23],–,–,–,3700 nM,–,2300 nM,15 nM,0.19 nM,0.62 nM,–,–,–,–,–,–
CCCc1nc(C)c2c(=O)[nH]c(-c3cc(S(=O)(=O)N(C)C[C@H](COC)OC)ccc3OCC)nn12 [Compound 7],–,–,0.018,784 nM,25.5%,–,14.7 nM,0.356 nM,2.9 nM,–,–,48.6 ×10⁻⁶ cm/s,57.4 ×10⁻⁶ cm/s,76.1 ×10⁻⁶ cm/s,–
CCCc1nc(C)c2c(=O)[nH]c(-c3cc(S(=O)(=O)N4CCN(CC(=O)N5CCOCC5)CC4)ccc3OCC)nn12 [Compound 22],–,–,0.116,511 nM,0.8%,2950 nM,18.5 nM,0.05 nM,0.92 nM,–,–,–,–,–,–
CCCc1nc(C)c2c(=O)[nH]c(-c3cc(S(=O)(=O)N4CCC[C@H]4CN4CCCC4)ccc3OCC)nn12.Cl [Compound 11],> 50 µg/mL,> 50 µg/mL,–,2100 nM,–,–,48 nM,1 nM,23 nM,25000 nM,> 100000 nM,6.87 ×10⁻⁶ cm/s,30.5 ×10⁻⁶ cm/s,3.86 ×10⁻⁶ cm/s,–
CCCc1nc(C)c2c(=O)[nH]c(-c3cc(S(=O)(=O)N(CCO)CCO)ccc3OCC)nn12 [Compound 6],–,–,–,1500 nM,–,–,26 nM,0.52 nM,17 nM,–,–,4.3 ×10⁻⁶ cm/s,28.1 ×10⁻⁶ cm/s,~0.08 ×10⁻⁶ cm/s,–
CCCc1nc(C)c2c(=O)[nH]c(-c3cc(S(=O)(=O)N(CCOCC)CCOCC)ccc3OCC)nn12 [Compound 10],–,–,0.012,546 nM,89.9%,–,12 nM,0.34 nM,2.6 nM,–,–,–,–,49 ×10⁻⁶ cm/s,–
CCCc1nc(C)c2c(=O)[nH]c(-c3cc(S(=O)(=O)NCCO)ccc3OCC)nn12 [Compound 4],–,–,–,2030 nM,–,–,18.7 nM,1.08 nM,5.63 nM,~50000 nM,> 100000 nM,–,–,~0.0062 ×10⁻⁶ cm/s,0.0019 ×10⁻⁶ cm/s
CCCc1nc(C)c2c(=O)[nH]c(-c3cc(S(=O)(=O)N(C)CC(=O)N(C)OC)ccc3OCC)nn12 [Compound 14],–,–,0.024,648 nM,9.9%,1550 nM,12 nM,0.104 nM,2.9 nM,–,–,20.6 ×10⁻⁶ cm/s,48.8 ×10⁻⁶ cm/s,–,–
CCCc1nc(C)c2c(=O)[nH]c(-c3cc(S(=O)(=O)N(C)C)ccc3OCC)nn12 [Compound 8],–,–,0.024,1200 nM,44.2%,–,31 nM,1 nM,5 nM,–,–,45.4 ×10⁻⁶ cm/s,47.4 ×10⁻⁶ cm/s,68.9 ×10⁻⁶ cm/s,–
CCCc1nc(C)c2c(=O)[nH]c(-c3cc(S(=O)(=O)N(C)CC(=O)O)ccc3OCC)nn12 [Compound 12],–,–,0.025,1300 nM,0.8%,5000 nM,24 nM,0.1 nM,0.48 nM,–,–,2.2 ×10⁻⁶ cm/s,5.5 ×10⁻⁶ cm/s,–,–
